This note sets out measurements from article PMC11201061, “Mechanistic Study of Antimicrobial Effectiveness of Cyclic Amphipathic Peptide [R4W4] against Methicillin-Resistant Staphylococcus aureus Clinical Isolates” (Antibiotics, 2024).

For orientation: half-life means the time in which the quantity being followed falls by half. A high value points to slow decline. Broadly, the fraction remaining is the share of the starting amount still present when the sample was taken.

≈ marks a conversion by molar mass, not a printed value. Where a name gives a salt, the structure may show the parent alone. Where a SMILES comes first, the peptide text is derived from it.

In series [1] the test system is MRSA USA300. Put plainly: microbe, parasite or virus in culture. Particulars: for MIC against index isolate (no serial passage): MRSA USA300 index strain. The protocol: MRSA USA300 bacteria from −80 °C freezer stock were cultured on an LB agar plate overnight. One bacteria colony was added to a 6 mL fresh MHB with constant shaking at 200 rpm at 37 °C. The bacteria were transferred daily by inoculating 10 μL of stationary-phase culture into […] of MHB in a 1 mL cap-clipped Eppendorf tube. Then, 20 μL of bacteria aliquot was added to […] of MHB broth, with or without [R4W4], at a final concentration of the MIC overnight in an […] at 37 °C for five transfers. […] […] Experiments were performed in triplicates. Every time we increased the concentration of [R4W4], a sample of the induction generation was inoculated into 20% (vol/vol) glycerol and stored at −70 °C. The final MIC values of [R4W4], vancomycin, and levofloxacin were determined by modified microbroth dilution assay.

The next series concerns MRSA LAC USA300. Put plainly: Surface charge neutralization by zeta potential. Particulars: for zeta potential of MRSA after treatment: agent at 16 μg/mL (4 × MIC of [R4W4]), HEPES pH 7.4, 150 mM NaCl, 25 °C, mean of triplicate, untreated −31 ± 0.88 mV. In kind it is cell-based, Staphylococcus aureus. As for the experimental part: Stock cultures of the MRSA strain from −80 °C were inoculated on MHB agar plates at 37 °C overnight. Two isolated colonies were inoculated in 6 mL MHB broth and allowed to grow overnight with shaking at 225 rpm. A 100 µL bacteria aliquot was added to a 5 mL fresh MHB, and the suspension was incubated to grow for 2 h at 37 °C to achieve a final bacteria concentration of ~3 × 10^8 CFU/mL as (A 600 ~0.1). The bacterial suspension was diluted using fresh MHB to 3 × 10^5 CFU/mL. The bacterial suspension was centrifuged at 11,400× g for 10 min and washed twice using 10 mM HEPES buffer, pH 7.4, containing 150 mM NaCl (normal saline).
An amount of 100 µLs of test samples was added to 900 µL of the bacterial aliquots using a positive buffer without test samples.
Meanwhile, the Malvern Zetasizer Nano was set to read samples at 25 °C. The bacterial suspension was dispensed into disposable zeta cells with gold electrodes and allowed to equilibrate for 15 min at 25 °C. The zeta potential value for each sample was calculated from the measured value of electrophoretic mobility using the Smuluchowski equation.

The next series relates to B. subtilis 21332. Put plainly: microbe, parasite or virus in culture. In kind it is cell-based, Bacillus subtilis. As to conditions: for MBC/MIC: B. subtilis ATCC 21332. As for the experimental part:
To determine whether the antibacterial activity of [R4W4] is bacteriostatic or bactericidal against clinical isolates of multidrug-resistant bacterial isolates, MIC and MBC were determined using the microbroth dilution method. Bacteriostatic activity was defined as a ratio of the MBC/MIC greater than four and bactericidal activity as MBC/MIC ratio ≤ 4 [33]. We added aliquots of test samples (256 μg/mL concentration of [R4W4] or vancomycin as a control prepared in TSB) to the first well of microplates. MHB media was added to the remaining wells. Two-fold serial dilutions were performed, starting with the highest drug concentration in well 1, and the dilution process continued. A bacterial aliquot of 1/150 dilution was prepared with a 0.5 McFarland standard solution from an overnight culture of the tested bacteria isolate. Bacteria were added to the microplate and placed into wells with the drug dilutions. The microplates were incubated overnight for 24 h at 37 °C. [R4W4] was synthesized and purified, as reported earlier.

The test system of series [2] is MRSA USA300. Put plainly: Membrane depolarization assay with DisC3(5). The series is classed as cell-based, Staphylococcus aureus. As for the experimental part:
Buffer A (5 mM HEPE and 5 mM glucose) and Buffer B (5 mM HEPE, 5 mM glucose, and 0.2 mM EDTA) solutions were prepared and filtered using 0.2 μm filters. Bacteria strains (MRSA and E. coli) from a −80 °C freezer were inoculated on an agar plate overnight. Two to three colonies of each bacteria strain were inoculated in 8 mL Cation-Adjusted Muller-Hinton Broth (CAMHB) and allowed to grow overnight. The overnight grown MRSA or E. coli bacteria was diluted with a fresh CAMHB (1:100) and incubated at 37 °C for 5 h with shaking at 220 rpm. The resulting bacteria cells at the growth phase were centrifuged at 3700× g at 4 °C for 10 min. The bacteria pellets were washed three times with buffer A and then resuspended in buffer A to an OD600nm of 0.05.
On the other hand, E. coli was resuspended in buffer B to an OD600nm of 0.05 to facilitate fluorescence dye DSC5 uptake. Then, 20 mL of each bacteria suspension was mixed with 10 μL of 100 μM dye in a dark place for 45 min. After incubation, potassium chloride was added to the two bacteria suspensions to a final concentration. […] The fluorescence intensity was measured at excitation and emission wavelengths of 622 nm and 670 nm, respectively.

The next series relates to E. coli 25922. In words: Checkered board synergy assay with gentamicin. In kind it is cell-based, Escherichia coli. The protocol:
An amount of 100 µL of [R4W4] peptide test solution at a final concentration of 512 µg/mL was added to each well A-G column 1 in plate A using a multi-channel pipette. A 50 µL MH Broth was added to micro-plate well A-G columns 2–9. Using a multi-channel pipette, a two-fold serial dilution was performed by removing 50 µL solution from column 1 and was added to column 2 with thorough mixing. The micro-pipette was discarded after each transfer. The last portion after column 9 was discarded. In another microplate, 100 µL MHB was added to well B-G columns 1–11 using a multi-channel pipette. A 200 µL gentamicin test solution 512 µg/mL was added to row A, columns 1–11. A two-fold serial dilution was performed by removing 100 µL from rows A to B. The last portion was discarded. Using eight multi-channel pipettes, 50 µL of gentamicin test solution was transferred in the ordinate column A-G row 1 to the first microplate. The plate was incubated at 37 °C for 18–24 h. The fractional inhibitory concentration (FIC) of the antibacterial agents and the fractional inhibitory concentration index (FICI) of the two antibacterial agents were determined to evaluate the synergistic interaction. The FICI was interpreted as follows: FICI ≤ 0.5, synergy; 0.5 < FICI ≤ 1, partial synergy; 1 ≤ FICI < 4, additive effect or indifference; 4 ≤ FICI antagonism and calculated from the mean values from multiple experiments.

A short description of the next series: in vitro. Particulars: human, 25% human serum.

Procedure for in vitro: Fresh human serum (4 mL) was centrifuged at 12,500× g for 15 min at 4 °C to remove the lipids. A 25% human serum sample was prepared by adding 375 µL of the human serum supernatant to 1125 µL of RPMI buffer. […] The test sample was incubated in a water bath at 37 °C until a predetermined time interval (0, 1, 2, 4, 6, 8.5, 12, and 20 h). At the time intervals, a 150 µL aliquot test sample was added to a 300 µL cocktail solution [ethanol/formic acid (98:2 v/v) mixture] to cease the reaction. The test samples of aliquots were stored on dry ice for 20 min and then centrifuged at 17,200× g for 20 min. For LC-MS analysis, 150 µL supernatant aliquot test samples were stored at −20 °C [54].
A 20 μL aliquot of each sample was analyzed using an Xterra MS C18 column (3.9 × 150 mm, 5 μm, Waters, MA, USA), Nexera XR, and Prominence Shimadzu LC-20AD XR systems (Shimadzu Corporation, Kyoto, Japan) coupled with Shimadzu LC-MS-2020 mass spectrometer (Shimadzu, OR, USA). A two-component LC system consisted of mobile phase A (0.1% formic acid and 10% acetonitrile in water) and mobile phase B (0.1% formic acid and 100% acetonitrile). The flow rate was set at 1.0 mL/min. The Xterra MS C18 column at 40 °C was allowed to equilibrate with 95% mobile phase A. Peptides were loaded to the column and washed for 5 min with 95% mobile Phase A. Analytes were separated using a binary gradient of 0–95% mobile Phase B for 25 min. […] MS was conducted in multiple reaction monitoring and positive electrospray ionization mode. Fourteen concentrations of [R4W4] prepared by two-fold dilution of 200 μg/mL to 0.39 μg/mL were used to prepare calibration curves. The calibration curves were plotted using weighted (1/×2) least-squares linear regression analysis of peptide mass spectra area under the curve (AUC) versus concentration.

With `CN[C@H](CC(C)C)C(=O)N[C@H]1C(=O)N[C@@H](CC(N)=O)C(=O)N[C@H]2C(=O)N[C@H]3C(=O)N[C@H](C(=O)N[C@H](C(=O)O)c4cc(O)cc(O)c4-c4cc3ccc4O)[C@H](O)c3ccc(c(Cl)c3)Oc3cc2cc(c3O[C@@H]2O[C@H](CO)[C@@H](O)[C@H](O)[C@H]2O[C@H]2C[C@](C)(N)[C@H](O)[C@H](C)O2)Oc2ccc(cc2Cl)[C@H]1O` [Vancomycin, Vancomycin Hydrochloride, reference compound], in the series with MRSA USA300 [1] (MIC in duplicate), the “MIC against index isolate (no serial passage)” value amounted to 0.5 µg/mL. In addition, the “change in MIC after serial passage” value in the series on MRSA USA300 [1] (MRSA USA300 passaged versus index strain) came to 4 folds. In addition, the MIC is 4 µg/mL in the series with MRSA USA300 [1] (Staphylococcus aureus, MRSA|USA300, read-out: MIC against serial passaged [R4W4]-resistant isolate) and 0.25 µg/mL in the series on B. subtilis 21332 (Bacillus subtilis, ATCC21332, 24 h). For the same molecule, the “zeta potential of MRSA after treatment” value with MRSA LAC USA300 is recorded as −33.03 mV. In the series on B. subtilis 21332, this molecule showed an MBC/MIC of 2. Also, in the series on B. subtilis 21332 (Bacillus subtilis, ATCC21332), the MBC turned out to be 0.5 µg/mL. Also, the “DisC3(5) fluorescence versus control” value in the series on MRSA USA300 [2] (controls at 100 µg/mL) is given as “no significant difference”.
Consider `N=C(N)NCCC[C@@H]1NC(=O)[C@H](CCCNC(=N)N)NC(=O)[C@H](CCCNC(=N)N)NC(=O)[C@H](Cc2c[nH]c3ccccc23)NC(=O)[C@H](Cc2c[nH]c3ccccc23)NC(=O)[C@H](Cc2c[nH]c3ccccc23)NC(=O)[C@H](Cc2c[nH]c3ccccc23)NC(=O)[C@H](CCCNC(=N)N)NC1=O` [[R4W4]] (cyclo(RRRRWWWW)), for which, in the series on E. coli 25922 (E. coli 25922, checkered board), the “MIC(A+B) ([R4W4] in combination with gentamicin)” value is recorded as 1.5 µg/mL. Besides, in the series on E. coli 25922 (E. coli 25922, checkered board, 37 °C, 18–24 h, mean values from multiple experiments), the “MICA ([R4W4] alone)” value is 32 µg/mL. Besides, the FICA in the series with E. coli 25922 (E. coli 25922, fractional inhibitory concentration of [R4W4]) stood at 0.05. For the same molecule, the “reduction in MIC value in combination” value in the series with E. coli 25922 (E. coli, [R4W4] + gentamicin combination versus alone) was 2 fold. In addition, in the series with MRSA USA300 [1] (MRSA USA300, 35 passages, stepwise increasing concentration), the “final [R4W4] concentration at which growth was achieved at the end of serial passage” value turned out to be 32 µg/mL. Further, the “MIC against serial passaged [R4W4]-resistant isolate” value against MRSA USA300 [1] (MRSA USA300 after serial passage in [R4W4], MIC in duplicate) is recorded as 16 µg/mL (≈ 11.7 µM). In addition, the “MIC against index isolate (no serial passage)” value in the series on MRSA USA300 [1] (MIC in duplicate) is given as 4 µg/mL (≈ 2.92 µM). The “concentration required to achieve neutralization of negative surface charge” value with MRSA LAC USA300 (2 × MIC) is 8 µg/mL. In the series on MRSA LAC USA300, the “zeta potential of MRSA after treatment” value was −8.37 mV. Besides, in the series on B. subtilis 21332 (21332, 24 h), the MBC amounted to 8 µg/mL (≈ 5.84 µM) and the MIC is on record as 4 µg/mL (≈ 2.92 µM). The same molecule came in with an MBC/MIC in the series with B. subtilis 21332 of 2. In the series “in vitro”, this molecule showed a half-life at 100 µg/mL greater than 20 h; an amount remaining at 1 h, 100 µg/mL of roughly 99%; an amount remaining at 2 h, 100 µg/mL of 93%; an amount remaining at 6 h, 100 µg/mL of 80%. In the series “in vitro”, this molecule registered a fraction remaining at 12 h, 100 µg/mL of 77% and a fraction remaining at 20 h, 100 µg/mL of 76%. Besides, in the series with MRSA USA300 [2] ([R4W4] at 2 × MIC), the “DisC3(5) fluorescence (membrane depolarization)” value is “fluorescence decreases below that of vancomycin and control”. For the same molecule, in the series with MRSA USA300 [2] ([R4W4] at 16 × MIC), the “DisC3(5) fluorescence (membrane depolarization)” value is “enhanced fluorescence signal that surpassed that of nisin”.
